Data reported in US5707815A, “Mammalian monocyte chemoattractant protein receptors and assays using them” (Regents of the University of California, priority 1995, dated 1998).

Tests used:
[1] = system: undifferentiated human HL-60 cells; assay: MCP-1 induced calcium flux in HL-60 cells; format: cell-based; conditions: undifferentiated HL-60 cells
Description: Because monocytes are difficult to isolate in usable quantity and express less than 2000 high affinity MCP-1 binding sites per cell, a cultured cell line that responded well to MCP-1 had to be identified. Using the calcium effiux assay as described in Vu, Cell 64:1057-68(1991), MCP-1 induced calcium fluxes in various cell lines were measured. […] In contrast, a dose-dependent calcium flux was detected in MM6 cells, with half maximal stimulation at 4nM MCP-1.

MIP-1α/RANTES receptor = assay: Ca45 efflux assay in Xenopus oocytes, MIP-1α/RANTES receptor examined in parallel; format: cell-based
MCP-1 receptor = assay: Total inositol phosphate accumulation in MCP-1 receptor transfected 293 cells; format: cell-based, human; conditions: 293 cells stably expressing recombinant MCP-1 receptor
Description: Inositol (1,4,5)-triphosphate (IP3) mobilizes intracellular calcium in response to activation of a wide spectrum of receptors, including many seven-transmembrane-domain receptors. Hung, J. Ceil. Biol. 116:827-32 (1992); Putney, Trends Endocrinol. Metab. 5:256-60 (1994). To investigate this mobilization, total inositol phosphate accumulation was determined as described in Hung, J. Cell Biol. 116:827-32 (1992). HEK-293 cells were grown until confluent in 24-well tissue culture dishes and labeled overnight with 2 uCi/ml [^3 H]myo-inositol (23 Ci/mmol) (New England Nuclear, Boston, Mass.) in inositol-free MEM-EBSS supplemented with 10% dialyzed FCS. Following labeling, the media were removed and the cells were incubated at room temperature for 5-10 min in 0.5 ml of serum-free MEM-EBSS media supplemented with 10 mM HEPES, 1 mg/ml BSA, and 10 mM LiCl. […] The incubation was terminated by removal of the incubation media and addition of 1 ml of ice-cold 20 mM formic acid. Plates were incubated at 4° C. for 30 min before the supernatants were applied to 1-ml Dowex AG1-X8 (100-200 mesh, formate form, from Sigma) chromatography columns. Columns were washed with 8 ml of water followed by 5 ml of 40 mM sodium formate. Total [^3 H]inositol phosphates were eluted with 5 ml of 2M ammonium formate/0.1M formic acid and quantitated by liquid scintillation spectroscopy. […]

[2] = system: untransfected or pcDNA3 transfected 293 cell controls; assay: cAMP formation in untransfected or pcDNA3 transfected 293 cell controls; format: cell-based, human; conditions: cells without receptor

## monocyte chemoattractant protein-1 [MCP-1]
[1]
  MCP-1 induced calcium flux: No calcium flux was detected
MIP-1α/RANTES receptor
  receptor signaling in response to chemokine: not to MCP-1
MCP-1 receptor
  hydrolysis of PI (phosphatidylinositol): little, if any
[2]
  effect on cAMP formation: neither stimulated nor inhibited
